The target of data set [1] is T1, human serotonin 5-HT2A receptor (Homo sapiens, UniProt P28223).
T1 construct: host or cells: HEK293 (ATCC CRL-1573)
Nature of the data set: Radioligand ([3H]LSD) competition binding, 5-HT2A receptor. The note with it: in words; up to 10 μM for partial competition. The method, then: Binding affinity (Ki) and functional potency and efficacy (EC50 and EMAX) values of the compounds were measured.
Radioligand competition binding was performed as previously described (Saraf, T. S., Felsing, D. E., Armstrong, J. L., Booth, R. G., and Canal, C. E., 2021, Evaluation of lorcaserin as an anticonvulsant in juvenile Fmr1 knockout mice, Epilepsy Res 175, 106677), with minor modifications, using human cloned 5-HT2A receptors. Plasmids encoding human serotonin 5-HT2A receptor cDNA were procured from the cDNA Resource Center. Human embryonic kidney cells (HEK293, ATCC CRL-1573) were grown in a cell incubator in 100 mm dishes with antibiotic-free Dulbecco's modified Eagle's medium containing 10% fetal bovine serum. Cells were transfected at ~85% confluency with 5-15 μg cDNA using TransIT-2020 reagent (Mirus Bio, Madison, Wisconsin). After approximately 48 hours, cell membrane was collected via centrifugation. For all experiments, serotonin (5-HT) hydrochloride was used as a positive control, and mianserin hydrochloride (10 μM) was used to define non-specific binding. Each cell membrane homogenate expressing 5-HT2A receptors was incubated at room temperature in 96-well plates with [^3H] […] Following equilibration, each sample was filtered rapidly under vacuum through fiberglass filters presoaked in a buffer and washed by vacuum several times with an ice-cold buffer. Filters were soaked with scintillation fluid and counts per minute were detected using photodetectors (Microbeta Scintillation Counter). […] Data shown are the results from all experiments combined. As is known, G protein-coupled receptors, including the 5-HT2A receptor, can exist in multiple conformations, and ligands, typically agonist ligands, have unique affinities for these conformations of the receptor (Kenakin, T. Theoretical Aspects of GPCR-Ligand Complex Pharmacology, Chem. Rev. 2017, 117, 1, 4-20). […] However, for simplicity reasons, affinity of these compounds are reported herein as fitted to the single-site model. The data point for −10 samples is total specific binding (no compound present), and −4 was interpolated to complete the binding curves to 0 specific binding.

Data set [2] addresses recombinant human MAO-A (Homo sapiens, UniProt P21397). As to the kind of experiment: in vitro. The note with it: role: substrate, hrMAO-A 0.02 mg/mL, test compound 1 μM, pH 7.4, 37° C. Type of data set: in vitro ADME. The method, then:
hrMAO-A and MAO control were purchased from XenoTech. The reaction mixture was prepared as described below. The test compound was added into the reaction mixture at a final concentration of 1 μM. The positive control, kynuramine (25 μM), was run simultaneously with the test compound in a separate reaction. The reaction mixture (without test compounds or kynuramine) was equilibrated in a shaking water bath at 37° C. for 5 minutes. The reaction was initiated by the addition of the test compound or kynuramine, and the mixture was incubated in a shaking water bath at 37° C. Aliquots (150 μL) of the test compound reaction mixture were withdrawn at 0, 5, 10, 20, 30,60, and 120 minutes. Aliquots (150 μL) of the positive control reaction mixture were withdrawn at 0 and 30 minutes. Test compound and kynuramine samples were immediately combined with 150 AL of ice-cold 100% acetonitrile containing 0.1% formic acid and internal standard (0.2 μM metoprolol) to terminate the reaction. The samples were then mixed and centrifuged to precipitate proteins. All samples were assayed by LC-MS/MS. The peak area response ratio (PARR) of analyte to internal standard at each time point was compared to the PARR at time 0 to determine the percent remaining at each time point. Half-lives were calculated using GraphPad software, fitting to a single-phase exponential decay equation.

The nature of data set [3]: in vitro. It counts as in vitro ADME, Male Sprague-Dawley rat. The note with it: rat liver microsomes 0.5 mg/mL, 1 mM NADPH, test compound 1 μM, pH 7.4, 37° C.; read-out: RLM, t1/2. The protocol:
Male Sprague-Dawley rat liver microsomes were purchased from XenoTech. The reaction mixture, minus NADPH, was prepared as described below. The test compound was added into the reaction mixture at a final concentration of 1 μM. The control compound, testosterone, was run simultaneously with the test compound in a separate reaction. The reaction mixture (without cofactor) was equilibrated in a shaking water bath at 37° C. for 5 minutes. The reaction was initiated by the addition of the cofactor, and the mixture was incubated in a shaking water bath at 37° C. Aliquots (150 μL) were withdrawn at 0, 5, 10, 20, 30, 60, and 120 minutes. Test compound and testosterone samples were immediately combined with 150 μL of ice-cold acetonitrile (ACN) containing 0.1% formic acid and internal standard to terminate the reaction. The samples were then mixed and centrifuged to precipitate proteins. All samples were assayed by LC-MS/MS using electrospray ionization. The peak area response ratio (PARR) of analyte to internal standard at each time point was compared to the PARR at time 0 to determine the percent remaining at each time point. Half-lives were calculated using GraphPad software, fitting to a single-phase exponential decay equation.
(Microsomes from liver hold many membrane-bound enzymes, among them those of drug oxidation.)

The structures appear in SMILES notation.

Chain of recombinant human MAO-A (P21397 whole entry): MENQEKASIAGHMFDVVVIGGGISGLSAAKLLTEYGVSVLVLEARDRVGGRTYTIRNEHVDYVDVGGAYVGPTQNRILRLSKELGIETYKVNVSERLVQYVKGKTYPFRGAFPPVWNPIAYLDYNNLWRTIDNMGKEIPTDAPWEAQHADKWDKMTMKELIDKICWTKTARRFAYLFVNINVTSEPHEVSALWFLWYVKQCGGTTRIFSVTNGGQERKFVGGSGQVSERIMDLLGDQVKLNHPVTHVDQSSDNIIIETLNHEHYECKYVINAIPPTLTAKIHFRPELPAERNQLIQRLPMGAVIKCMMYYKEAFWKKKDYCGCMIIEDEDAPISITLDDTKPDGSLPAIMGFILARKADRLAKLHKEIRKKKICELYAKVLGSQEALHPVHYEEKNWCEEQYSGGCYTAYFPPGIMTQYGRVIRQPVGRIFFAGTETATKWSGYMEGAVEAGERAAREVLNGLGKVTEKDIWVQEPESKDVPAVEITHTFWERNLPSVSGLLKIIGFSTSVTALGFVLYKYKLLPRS
T1 sequence (P28223 whole entry): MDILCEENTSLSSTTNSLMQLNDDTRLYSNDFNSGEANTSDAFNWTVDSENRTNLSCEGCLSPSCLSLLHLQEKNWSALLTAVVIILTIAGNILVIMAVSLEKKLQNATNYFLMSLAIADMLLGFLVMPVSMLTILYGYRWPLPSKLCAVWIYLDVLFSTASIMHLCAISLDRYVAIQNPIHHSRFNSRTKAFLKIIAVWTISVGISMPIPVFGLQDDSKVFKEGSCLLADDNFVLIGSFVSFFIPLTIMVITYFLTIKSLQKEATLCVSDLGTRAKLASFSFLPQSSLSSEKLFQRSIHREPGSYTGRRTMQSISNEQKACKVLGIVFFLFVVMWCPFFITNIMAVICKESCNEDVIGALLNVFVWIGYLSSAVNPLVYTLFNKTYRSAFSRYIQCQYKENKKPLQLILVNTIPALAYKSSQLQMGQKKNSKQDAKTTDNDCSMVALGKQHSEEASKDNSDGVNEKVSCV

Regarding `FC(F)(F)CNCCc1c[nH]c2ccccc12` [II-20, N-(2-(1H-indol-3-yl)ethyl)-2,2,2-trifluoroethan-1-amine], the “competition for [3H]LSD-labeled 5-HT2A receptors” value in data set [1] is “only partial competition”. Moreover, the values for the half-life at 1 µM in data set [2] and in data set [3] were above 120 min and 7.63 min, respectively.

These data come from patent US20260337162A1, “TRYPTAMINE COMPOUNDS, COMPOSITIONS, AND METHODS OF USE” (priority 2022, published 2026).
